The source of these data is patent US8178579B2, “Dioxanes and uses thereof” (President and Fellows of Harvard College, priority 2001, dated 2012).

This test has as its system A549 cells. The experiment in a line: mitotic abnormalities by immunofluorescence. The test is classed as cell-based, human. The conditions noted are these: 18 h or 24 h treatment, TSA 10 μM in FIG. 42C. Here is the method: Detection of acetylated α-tubulin and acetylated histones by immunofluorescence was performed as described in Example 6 above. For determining microtubule stability, A549 cells were treated as indicated, fixed in glutaraldehyde, and stained for acetylated α-tubulin and total α-tubulin in antibody dilution buffer (ADB, Tris-buffered saline (TBS), 0.15 M NaCl, 0.02 M Tris-Cl, pH 7.4, with 2% bovine serum albumin and 0.1% Triton-X 100). For cold-depolymerization, cells were incubated at 4° C. or 37° C. for an additional 90 minutes before fixation. For calcium depolymerization, cells were incubated at 37° C. for 10 minutes in a microtubule-stabilizing buffer (0.2% NP-40, 5 mM MgCl2, 2 mM EGTA, 2 M glycerol, 100 mM PIPES, pH 6.8) with and without the addition of CaCl2 (2 mM) before glutaraldehyde fixation. For co-localization experiments, biotubacin (50 μM) treated A549 cells were fixed in 3.7% formaldehyde in TBS and processed as for detecting acetylated α-tubulin (See Example 6 above) with biotubacin detected using streptavidin-TR (1:500). HDAC6 was detected using a rabbit polyclonal antibody (1:250-1:750; C.M.G., unpublished data) under the conditions used to detect acetylated α-tubulin (See Example 6 above). Filamentous actin in HT-1080 cells was detected using TR-conjugated phalloidin (1 μg/mL), and depolymerized actin using FITC-conjugated deoxyribonuclease (10 μg/mL), following fixation in 3.7% formaldehyde in TBS. p58 (1:100) in NIH-3T3 cells was detected after fixation in 3.7% formaldehyde in TBS. Images for these experiments were collected on a Zeiss LSM510 confocal scanning laser microscope at the appropriate wavelengths using the accompanying software and processed with Adobe Photoshop. Deconvoluted serial images of TSA and DMSO treated A549 cells were obtained by taking sections (8μ) on a Zeiss Axioskop 2 microscope using an AxioCam camera and the accompanying software. Rat hippocampal neuronal cultures were fixed at room temperature for 15 min in phosphate-buffered saline (PBS) containing 4% paraformaldehyde. […]

“Also recorded” adds a separate entry of the source.

`CC(/C=C/C(=O)NO)=C\[C@@H](C)C(=O)c1ccc(N(C)C)cc1` [TSA, trichostatin A, reference compound]: the mitotic abnormalities entry is “Mitotic abnormalities in A549 cells induced by TSA; also recorded: caused a significant number of abnormal mitotic cells”.

For `O=C(CCCCCCC(=O)Nc1ccc([C@@H]2OC(c3ccc(CO)cc3)C[C@H](CSc3nc(-c4ccccc4)c(-c4ccccc4)o3)O2)cc1)NO` (some centres unmarked) [tubacin], the mitotic abnormalities result is “did not increase the frequency of mitotic abnormalities; also recorded: had neither an effect on the number of mitotic cells nor spindle morphology”.
